From ChEMBL document CHEMBL3507680, “University of Dundee, Gates Library screen for HepG2 cell viability” come the findings set out here.

The data set in a line: Human HepG2 cell viability assay in 384 well format. It is filed as toxicity, cell-based. Also noted: dose 125 nL, time 70.5 hour; concentration not given beside the values. The conditions noted are these: HepG2 cells, read-out: Inhibition.
Consider `CCN(CC)C(=O)Cn1cc(C(=O)NCCc2scnc2C)nn1`, for which the cytotoxicity at 70.5 h was -1.44%.
The value for `OCC(O)CSCc1nnc(-c2cccc(F)c2)o1` (stereo unspecified) was -14.7%; that for `O=C(c1ccc(=O)[nH]n1)N(CCO)Cc1cc(Br)ccc1F` was -5.4%.
With `CCOC(=O)CCCNC(=O)CN1CCN(c2ncccn2)CC1`, the cytotoxicity at 70.5 h is -13.6%.
For `Cc1cc(CN2CCN(C(=O)NCc3c(C)noc3C)CC2)on1` the value was -13.9%; for `O=C1CC(c2cccs2)c2snc(C(=O)O)c2N1` (stereo unspecified), -9.35%.
With `CCCc1c(C(=O)N2CCN(Cc3ccccn3)CC2)cnn1C`, the cytotoxicity at 70.5 h was -14.7%.
For `N#Cc1ccccc1CN(CCO)Cc1ccsc1` the value was -14.1%; for `O=C(C1CCCOC1)N1CCCc2ccccc21` (stereo unspecified), -4.78%.
The value for `Cc1cc(-c2cc3nc(C)c(C)c(NCC4COCCO4)n3n2)no1` (stereo unspecified) was -5.97%; that for `CNc1nccnc1C1CN(C(=O)c2cc[nH]n2)CCO1` (stereo unspecified) was -4.96%.
The value for `COCCC(=O)Nc1nccn1Cc1ccc(Br)cc1` was -0.141%; that for `CCC(C)(C)NC(=O)C1CC(=O)N(CC2CC2)C1` (stereo unspecified) was 27.7%.
For the compound `CN(CCO)C[C@@H]1CN(C(=O)Cc2ccc3ccccc3c2)C[C@@H]1CO`, the cytotoxicity at 70.5 h was -4.17%.
In the case of `Cc1cccc(CN(C(=O)NCc2ccccn2)C2CC2)c1`, the cytotoxicity at 70.5 h is -8.28%.
For the compound `COc1cccc(CN2C[C@H]3CC[C@H]2C3)c1OCCN1CCOCC1`, the cytotoxicity at 70.5 h was -2.04%.
For the compound `CCC(NC1CCN(C(=O)c2ccccc2)CC1)c1cccs1` (stereo unspecified), the cytotoxicity at 70.5 h is -16.9%.
With `CNC(=O)NC(=O)CCSc1ccccc1Cl`, the cytotoxicity at 70.5 h was -1.01%.
With `CCNc1ncc(C(=O)NCCc2csc(-c3ncccn3)n2)cn1`, the cytotoxicity at 70.5 h is 5.7%.
`CC(Cn1ccnc1)NCc1ccc2nonc2c1` (stereo unspecified): the cytotoxicity at 70.5 h was -2.31%.
As for `Cc1ccc(-c2nc(CN3CCOCS3(=O)=O)c(C)o2)cc1`, the cytotoxicity at 70.5 h is -0.637%.
For `CCCNC(=O)N1CCc2ccc(S(=O)(=O)N3CCCC3)cc2C1` the value was -10.1%; for `Cc1ccsc1C1CC(=O)Nc2c1cnn2C(C)C` (stereo unspecified), -7.26%; for `Cc1nc(N)sc1C(=O)N1CCC(C(O)Cc2ccccc2)CC1` (stereo unspecified), -7.21%.
As to `CCOc1ccc2nc(CN3CCC(CN)C3)ccc2c1` (stereo unspecified), the cytotoxicity at 70.5 h is -2.57%.
With `O=C(CCSc1ccccc1)NS(=O)(=O)c1ccc2c(c1)OCCO2`, the cytotoxicity at 70.5 h was -6.91%.
The value for `O=C(O)CNc1cc(-c2cc(C3CC3)ncn2)c2cc[nH]c2n1` was 0.922%; that for `N#Cc1cccc(N2CCOCC3(CCCN(C(=O)NC4CC4)C3)C2)c1` (stereo unspecified) was -6.43%.
For `O=C(C1CC1)N1CCN2C[C@H](c3ccccc3)[C@@H](CO)[C@H]2C1` the value was -5.2%.
With `c1cncc(OCC2CN(Cc3ccsc3)Cc3nccn3C2)c1` (stereo unspecified), the cytotoxicity at 70.5 h amounted to 6.26%.
The value for `CCN(CC)CCNS(=O)(=O)c1cccc(CSC)c1` was -8.72%; that for `CCc1nc(C2CCCN2C(=O)CCn2cncn2)no1` (stereo unspecified) was -21.3%.
For the compound `COC(C)C(=O)NS(=O)(=O)c1ccc(F)c(C(F)(F)F)c1` (stereo unspecified), the cytotoxicity at 70.5 h is -12.6%.
`Cc1cc(C)n(CC2CCCCN2CC(=O)Nc2ccncc2)n1` (stereo unspecified): the cytotoxicity at 70.5 h was -0.378%.
The value for `CC(C)[C@H]1CN(c2ccncc2)C[C@@H]1NS(=O)(=O)N(C)C` was -4.27%.
Consider `O=C(CCN1CCc2[nH]nc(C(F)(F)F)c2C1)Nc1ccccc1`, for which the cytotoxicity at 70.5 h is -2.13%.
The value for `CC(C)N(Cc1cccc(Cl)c1)Cc1nc2c(cnn2C)c(=O)[nH]1` was 6.79%; that for `Cc1cccc(C(=O)NCCNS(=O)(=O)c2cccs2)c1C` was -5.88%.
Take `CC(=O)N1CCCN(C(=O)NCCNc2ccccn2)CC1`: the cytotoxicity at 70.5 h amounted to 2.71%.
Take `CCc1nc2c(c(C)c(C)n2Cc2cccnc2)c(N)c1C`: the cytotoxicity at 70.5 h amounted to 0.896%.
For `CNC(=O)CCS(=O)(=O)Cc1coc(-c2ccc(F)cc2)n1` the value was -20.2%; for `Cc1nn(C)cc1S(=O)(=O)N[C@@H]1CCC[C@@H](N2CCCC2)[C@@H]1O`, -9.32%.
For `O=C1c2cnc(N3CCOCC3)nc2CN1c1ccc2c(c1)OCO2` the value was -5.67%; for `CCc1ccc(C(=O)N2CC[C@H](Oc3cccnc3C)[C@@H](O)CC2)cc1`, 14.4%.
Regarding `Cc1nc(CNC(C)c2cccc(N3CCCC3=O)c2)cs1` (stereo unspecified), the cytotoxicity at 70.5 h was -7.67%.
Turning to `COc1ccc(CCNC(=O)CN2CCOCS2(=O)=O)cc1`, the cytotoxicity at 70.5 h was -8.13%.
`O=C1N(c2cncnc2)CCC12CCCN(Cc1cccnc1)C2` (stereo unspecified): the cytotoxicity at 70.5 h was -3.72%.
For `Cc1cccc(CN2CCc3ncnc(N4CCN(C)CC4)c3CC2)n1` the value was -0.603%.
Take `Cc1cc(N2CCN(Cc3cn(C)nc3C)CC2)cc(C2CCCN2)n1` (stereo unspecified): the cytotoxicity at 70.5 h was -1.66%.
`O=C(C(c1ccccc1)S(=O)(=O)c1ccccn1)N1CCCC1` (stereo unspecified): the cytotoxicity at 70.5 h was -2.5%.
As for `Cc1cc(C)c(CNC(=O)C2COc3ccccc3C2)c(=O)[nH]1` (stereo unspecified), the cytotoxicity at 70.5 h came out at 0.458%.
Regarding `COC1COC2(CCN(Cc3ccco3)CC2)C1` (stereo unspecified), the cytotoxicity at 70.5 h is -8.76%.
For `Cc1noc(C2(C)CCCN(C(=O)c3cnn(C)c3)C2)n1` (stereo unspecified) the value was -7.96%; for `CS(=O)(=O)CC1(CNc2ccc(C#N)c(C(F)(F)F)c2)CC1`, -3.35%.
For `CC(C)C(C)N(C)Cc1nnc(-c2ccco2)o1` (stereo unspecified) the value was 17.4%; for `COc1ccc2cc(CN(C)CCN3CCCCC3=O)c(=O)[nH]c2c1`, -12.2%.
Turning to `CN(C)Cc1ccnc(NS(=O)(=O)CCc2ccccc2)c1`, the cytotoxicity at 70.5 h was found to be 3.89%.
The value for `Cc1noc(C)c1-c1cccc(CC2CCN(C(=O)CN)C2)n1` (stereo unspecified) was -4.83%.
In the case of `CC(C)(C)c1cn(C2CCN(C3CCSC3)CC2)nn1` (stereo unspecified), the cytotoxicity at 70.5 h is -7.05%.
For `c1nc(CN2CCCC(Cc3ccc(NC4CCCC4)nn3)C2)c[nH]1` (stereo unspecified) the value was 0.181%.
For `Nc1ccc(CC2COc3ccccc3C2)cn1` (stereo unspecified) the value was -5.61%; for `O=C(c1ccc(=O)[nH]n1)N1CC(c2nc(Cc3ccccc3)no2)C1`, -0.421%; for `Cc1csc(-c2ccc(NC(=O)N3CCOCC3)cc2)n1`, -0.264%.
Consider `COCCN1CCN(c2ccc(CN(C)C)cn2)CC1`, for which the cytotoxicity at 70.5 h came to 16.1%.
The value for `CN(CCN1CCCCCC1)C(=O)c1c(O)cccc1O` was -2.54%; that for `CCNc1ncc(C(=O)N(C)C(C)c2ccc3c(c2)OCCO3)cn1` (stereo unspecified) was -2.94%.
For `CC(C)Cc1ncc2c(n1)CN(c1cc(N3CCCC3)nc(N)n1)C2` the value was 1.59%; for `Cc1nc(C)c(C(=O)NCCNc2ncccc2C(F)(F)F)s1`, -7.63%; for `CCc1cc(NC(=O)C2CCCN(C(=O)c3ccncc3)C2)[nH]n1` (stereo unspecified), -10.6%.
With `CCc1nnc(C(C)N(C)Cc2c(C)nn(-c3ccccc3)c2C)o1` (stereo unspecified), the cytotoxicity at 70.5 h was -1.32%.
For `CN(C)C(=O)c1nc(CN2CC(c3ccccc3)CC2=O)no1` (stereo unspecified) the value was 10.4%; for `NC(=O)CNC1(c2ccc(Cl)cc2)CCCC1`, 0.922%.
The value for `Cc1ccccc1CN(C)C(=O)CN1CCOC(Cn2cccn2)C1` (stereo unspecified) was 3.04%; that for `OC(CN1CCCc2ccc(F)cc21)Cn1cccn1` (stereo unspecified) was 7.05%; that for `Cc1cccc(OC2CN(C(=O)c3cnn(C)c3)C2)c1` was 16.2%.
The value for `CC(=O)N1CCN(CCOc2ccc(F)cc2)CC(C(N)=O)C1` (stereo unspecified) was -9.44%; that for `CCn1nc(C)c2nc(C(C)C)nc(NCCCn3ccnc3)c21` was -17.9%.
For the compound `Cc1cc2cccc(NC(=O)N3CCC(N4CCSCC4)CC3)c2o1`, the cytotoxicity at 70.5 h is -11%.
As to `CO[C@@]1(C)C[C@@H](O)C12CCN(C(=O)CCn1c(C)cccc1=O)CC2`, the cytotoxicity at 70.5 h is -4.42%.
For `Cc1cc(C)nc(C2CCN(C(=O)CCn3nnc4ccccc43)C2)n1` (stereo unspecified), the cytotoxicity at 70.5 h is -6.12%.
For `Cc1ccc2cc(C(=O)N3CCN(S(C)(=O)=O)CC3)[nH]c2c1`, the cytotoxicity at 70.5 h was found to be 12.7%.
For `NC(C(=O)N1CCSc2ccccc2C1)c1ccccc1` (stereo unspecified) the value was 2.56%.
The value for `Cc1cc(C)nc(Nc2cccc(C3CCCN(CC4CC4)C3)n2)n1` (stereo unspecified) was -5.69%; that for `CCOc1ccccc1CCN1Cc2ncccc2C1=O` was 3.15%; that for `CNc1snc(C)c1C(=O)N1CCCC(n2nc(C)cc2C)C1` (stereo unspecified) was 23.1%.
As for `Cc1cc(C)n(CCCNC(=O)C2CCCO2)n1` (stereo unspecified), the cytotoxicity at 70.5 h amounted to 2.61%.
The value for `CN(CC1CCN(CCO)CC1)CC(O)c1ccc(F)cc1` (stereo unspecified) was -5.05%; that for `COc1cccc(-c2cnnc(N(C)CCC3CCCCO3)n2)c1` (stereo unspecified) was 0.0165%.
`O=C(Cc1cnc(-c2c(Cl)cccc2Cl)s1)N1CCC2(CC1)OCCO2`: the cytotoxicity at 70.5 h was -14.1%.
The value for `Cc1cc(CNc2cncc(C(=O)N(C)C)n2)c2[nH]c(C)c(C)c2c1` was 27.8%; that for `c1ccc(C(OCCNC2CCc3ncnn3C2)c2ccccc2)cc1` (stereo unspecified) was -5.27%.
For `CC(Sc1n[nH]c(-c2ccc3c(c2)CCC3)n1)C(N)=O` (stereo unspecified) the value was 0.8%; for `CC(=O)Nc1ncc(S(=O)(=O)Nc2ccccc2F)s1`, -9.78%.
Take `Cc1cc(N2CCN(Cc3ccc(-c4cc[nH]n4)o3)CC2)cc(C)n1`: the cytotoxicity at 70.5 h worked out at 19.1%.
Turning to `Cc1cc(CN2CCCC2c2noc(C(C)C)n2)on1` (stereo unspecified), the cytotoxicity at 70.5 h is -15.4%.
Turning to `Cc1nc(CN2CCc3ncnc(C4CC4)c3CC2)cs1`, the cytotoxicity at 70.5 h is -2.07%.
The value for `CC(C)(C)C(=O)CN1Cc2ccccc2NCCC1=O` was 0.78%; that for `c1cc(CN(CCCn2ccnc2)Cc2ccoc2)ccn1` was -4.93%.
As to `O=C(C1CCOC1)N1C[C@H]2CN(c3ccccc3)C(=O)[C@H]2C1` (stereo partly specified), the cytotoxicity at 70.5 h is -4.87%.
For `Cc1cc(NC(=O)NCc2cccnc2OC(C)C)n(C)n1` the value was -6.35%; for `O=C(Cn1nnn(-c2cccs2)c1=O)NCC1CCOC1` (stereo unspecified), 11.8%.
